# In US20230103330A1, “MECHANISTIC BIOMARKER FOR PREDICTING THE SURVIVAL OF PANCREATIC CANCER PATIENTS” (The Regents of the University of California, priority 2020, published 2023):
# Legend:
# [1] = target: T1, PKCβII deleted pseudosubstrate (Rattus norvegicus, UniProt P68403, DEL19-36); test: Immunoblot of PKC priming phosphorylations after phosphatase inhibitor; format: cell-based; conditions: COS-7 cells, 20 minutes prior to lysis
# T1 construct: expressed in transfected cells; host or cells: COS-7
# Experimental: FIG. 8. PKC APS Phosphorylation Is Not Regulated by a Calyculin-Sensitive Phosphatase. Western blot of lysates from COS-7 cells expressing RFP-tagged PKCβII wild-type (WT) or deleted pseudosubstrate (APS) and treated with DMSO (−) or Calyculin A (Cal, 100pM) and Go6976 (6pM) for 20 minutes prior to lysis. Immunoblots were probed with PKC phospho-specific antibodies against the activation loop (pThr^500), turn motif (pThr” ^1), or hydrophobic motif ([…]), total overexpressed PKC (HA), or phospho-serine substrate (pSer) as a positive control for Calyculin A.
# Cells were lysed in PPHB: 50 mM NaPO4 (pH 7.5), 1% Triton X-100, 20 mM NaF, 1 mM Na4P207, 100 mM NaCl, 2 mM EDTA, 2 mM EGTA, 1 mM Na3VO4, 1 mM PMSF, […] leupeptin, 1 mM DTT, and […]. Phlpp1+/+ and Ph/pp1-/−MEFs were lysed in 50 mM Tris (pH 7.4), 1% Triton X-100, 50 mM NaF, 10 mM Na4P207, 100 mM NaCl, 5 mM EDTA, 1 mM Na3VO4, 1 mM PMSF, […] leupeptin, and […]. Triton-soluble fractions were analyzed by SDS-PAGE on 7% big gels to observe phosphorylation shift, transfer to PVDF membrane (Biorad), and western blotting via chemiluminescence SuperSignal West reagent (Thermo Fisher) on a FluorChem Q imaging system (ProteinSimple). In western blots, the asterisk (*) denotes the position of mature, phosphorylated PKC; whereas, the dash (−) indicates the position of unphosphorylated PKC. […]
# [2] = target: T2, PKCβII (Rattus norvegicus, UniProt P68403); test: C kinase activity reporter (CKAR) FRET assay of cellular PKC activity; format: cell-based; conditions: for activation of WT PKCa and PKCβII (CKAR): COS7 cells, agonist treatment
# T2 construct: expressed in transfected cells; host or cells: COS7
# Experimental: (§1) For activity experiments COS7 cells were co-transfected with the indicated mCherry-tagged PKC construct and CKAR. For Kinameleon experiments, the indicated Kinameleon construct containing mYFP and mCFP was transfected alone. For translocation experiments, COS7 cells were co-transfected with the indicated mYFPtagged construct and plasma-membrane targeted mCFP at a ratio of 10:1. Baseline images were acquired every 15 s for 2 min prior to ligand addition. F6rster resonance energy transfer (FRET) ratios represent mean±SEM from at least three independent experiments.
# (§2) All data were normalized to the baseline FRET ratio of each individual cell unless noted that absolute FRET ratio was plotted or traces were normalized to levels post-inhibitor addition. […] Every experiment contained an mCherry-transfected control to measure endogenous activity, and an mCherry-tagged WT (or deleted pseudosubstrate) PKC. Control traces are depicted as dotted lines: specifically, the endogenous trace in FIG. 1E and the deleted pseudosubstrate trace in FIGS. 2G and 31, were redrawn to serve as a point of reference in those figures (data were acquired and derived in the same experiments which generated all the data in FIGS. 1A-1E and FIGS. 2A-2G, respectively).
# [3] = target: WT PKCβII (Rattus norvegicus, UniProt P68403); conditions: COS7 cells, PDBu 200 nM
# Experimental: as §1, §2
# T2 sequence (P68403 1-673 isoform P68403-2): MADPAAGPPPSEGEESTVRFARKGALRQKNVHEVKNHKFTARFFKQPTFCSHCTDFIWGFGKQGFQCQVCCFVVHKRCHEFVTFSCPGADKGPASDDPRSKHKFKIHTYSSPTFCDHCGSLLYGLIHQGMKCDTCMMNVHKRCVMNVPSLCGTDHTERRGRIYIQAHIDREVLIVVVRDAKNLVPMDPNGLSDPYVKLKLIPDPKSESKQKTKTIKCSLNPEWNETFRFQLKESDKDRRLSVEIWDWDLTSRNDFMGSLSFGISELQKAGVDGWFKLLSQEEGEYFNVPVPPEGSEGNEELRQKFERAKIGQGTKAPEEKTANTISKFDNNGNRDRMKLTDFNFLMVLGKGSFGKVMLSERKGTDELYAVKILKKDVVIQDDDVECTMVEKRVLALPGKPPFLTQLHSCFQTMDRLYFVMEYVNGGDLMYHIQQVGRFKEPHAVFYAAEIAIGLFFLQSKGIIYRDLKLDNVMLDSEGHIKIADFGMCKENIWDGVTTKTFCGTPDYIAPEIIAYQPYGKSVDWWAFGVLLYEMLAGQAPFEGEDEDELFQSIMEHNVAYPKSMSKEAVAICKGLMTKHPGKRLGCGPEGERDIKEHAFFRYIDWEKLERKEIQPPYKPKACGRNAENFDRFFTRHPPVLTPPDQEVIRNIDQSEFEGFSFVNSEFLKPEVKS
# Chain of WT PKCβII (P68403 1-673 isoform P68403-2): as above
# T1 sequence (P68403 with tags, fused parts or gaps isoform P68403-2 DEL19-36): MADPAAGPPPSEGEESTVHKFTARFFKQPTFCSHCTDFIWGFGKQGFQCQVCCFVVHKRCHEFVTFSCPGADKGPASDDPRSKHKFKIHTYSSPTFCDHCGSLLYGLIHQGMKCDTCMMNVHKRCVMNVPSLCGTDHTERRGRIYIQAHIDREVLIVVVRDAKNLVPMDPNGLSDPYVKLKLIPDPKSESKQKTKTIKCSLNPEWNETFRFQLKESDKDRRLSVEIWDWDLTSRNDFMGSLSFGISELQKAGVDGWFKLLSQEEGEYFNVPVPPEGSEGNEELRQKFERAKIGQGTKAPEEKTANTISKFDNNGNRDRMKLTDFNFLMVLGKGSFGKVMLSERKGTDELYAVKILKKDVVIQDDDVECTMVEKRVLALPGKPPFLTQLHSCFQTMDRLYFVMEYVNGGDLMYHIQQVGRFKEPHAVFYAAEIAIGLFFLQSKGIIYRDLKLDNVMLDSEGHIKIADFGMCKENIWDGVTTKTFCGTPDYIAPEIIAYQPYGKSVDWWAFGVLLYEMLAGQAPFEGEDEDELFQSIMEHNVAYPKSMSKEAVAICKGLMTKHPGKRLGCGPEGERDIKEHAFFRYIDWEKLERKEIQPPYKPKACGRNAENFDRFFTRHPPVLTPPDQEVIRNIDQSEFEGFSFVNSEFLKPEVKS
Compound,rescue of phosphorylation at the three priming sites of pseudosubstrate-deleted PKC [1],activation of WT PKCa and PKCβII (CKAR) [2],"CKAR phosphorylation ([2]; COS7 cells expressing WT PKC or turn motif mutant (T641A), PDBu 200 nM)",FRET ratio of Kinameleon reporter [3]
COC[C@@H]([C@H](O)[C@H](O)C(=O)NCC[C@H](C)c1nc(/C=C/C[C@@H]2O[C@]3(C[C@@H](O)[C@@H]2C)O[C@H]([C@H](C[C@H](O)[C@H](C)[C@H](O)[C@H](C)/C=C(C)/C(C)=C/C=C/C(C)=C\C#N)OC)[C@H](OP(=O)(O)O)C3(C)C)co1)N(C)C [Calyculin A],could not be rescued,–,–,–
"O=c1ccn([C@@H]2O[C@H](COP(=O)(O)OP(=O)(O)OP(=O)(O)O)[C@@H](O)[C@H]2O)c(=O)[nH]1 [UTP, uridine triphosphate]",–,activated,–,–
"CCCC(=O)O[C@@H]1[C@@H](C)[C@@]2(O)[C@@H](C=C(CO)C[C@]3(O)C(=O)C(C)=C[C@@H]23)[C@@H]2C(C)(C)[C@]12OC(=O)CCC [PDBu, Phorbol 12,13-dibutyrate]",–,activated,robust increase in CKAR phosphorylation,increase in FRET ratio
